In PubChem BioAssay (NCI):
“And” between values parts separate entries of the source, which are not always exact repeats. Equal entries are not always repeated.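 In this assay, cells in 96-well plates receive the compound at five concentrations for 48 hours. Endpoints are linearly interpolated between the surrounding concentrations. Abbreviation: GI50, concentration required for 50% inhibition of growth. TGI marks complete inhibition of growth.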

What was measured:
Assay in all cases: DTP human tumour cell line panel, 48 h
OVCAR-5 ovarian = system: OVCAR-5 ovarian
M14 melanoma = system: M14 melanoma
SK-MEL-5 melanoma = system: SK-MEL-5 melanoma
SW-620 colon = system: SW-620 colon
MCF7 breast = system: MCF7 breast
SF-295 CNS = system: SF-295 CNS
HS 578T breast = system: HS 578T breast
OVCAR-8 ovarian = system: OVCAR-8 ovarian
RPMI-8226 leukemia = system: RPMI-8226 leukemia
DU-145 prostate = system: DU-145 prostate

SMILES | TGI (OVCAR-5 ovarian) | TGI (M14 melanoma) [µM] | TGI (SK-MEL-5 melanoma) [µM] | TGI (SW-620 colon) | TGI (MCF7 breast) [µM] | TGI (SF-295 CNS) | TGI (HS 578T breast) | TGI (OVCAR-8 ovarian) | GI50 (RPMI-8226 leukemia) [µM] | TGI (DU-145 prostate) [µM] | TGI (RPMI-8226 leukemia) [µM]
CCC(=C/[C@H](C)C/C=C/C(C)=C/[C@@H](C)C(=O)[C@@H](C)[C@H](O)[C@@H](C)CC)/C=C/[C@H]1CC=CC(=O)O1 | 1.91 µM and 11 µM | 0.159 | 0.0182 | 2.09 µM and 12.1 µM | 0.0033 | 1.48 µM and 13.8 µM | 7.02 µM and 2.38 µM | 2.79 µM and 11.3 µM | < 0.0012 | < 0.0012 | –
CCC1CN2CCc3c([nH]c4ccccc34)[C@@](C(=O)OC)(c3cc4c(cc3OC)N(C)C3C(O)(C(=O)OC)C(C(=O)OC)C5(CC)C=CCN6CCC43C65)C[C@@H](C2)[C@@H]1C(C)(C)C (stereo not given in full) | > 10 µM | 8.22 | 1.25 | > 10 µM | > 10 | 0.555 µM | > 6.86 µM | > 3.79 µM | – | 9.32 | > 4.43
CCOC(=O)c1cc2c3c(cc(OC)c2[nH]1)N(C(=O)OCC)CC3 | > 100 µM | > 100 | > 100 | > 100 µM | > 100 | > 100 µM | > 100 µM | > 100 µM | – | > 100 | > 100
COc1cc2c(cc1OC)C(=O)N(c1ccc(OCCN3CCCC3)cc1)C2=O | > 100 µM | > 100 | > 100 | > 100 µM | > 100 | > 100 µM | > 100 µM | > 100 µM | – | > 100 | > 100
CC[C@@]12CCC(=S)N(CCSc3ccccc3)[C@@H]1c1c(n(S(=O)(=O)c3ccc(OC)cc3)c3ccccc13)CC2 | > 100 µM | > 100 | > 100 | > 100 µM | > 100 | > 100 µM | > 100 µM | > 100 µM | – | > 100 | > 100
C[n+]1c2ccccc2c(C(=O)Nc2ccc(S(=O)(=O)Nc3ncccn3)cc2)c2ccccc21 | > 100 µM | > 100 | > 100 | > 100 µM | > 100 | > 100 µM | > 100 µM | > 100 µM | – | > 100 | > 100
CC(=O)N1c2cc(N=NN(C)C)ccc2NC(=O)CC1C (stereo not given) | > 100 µM | > 100 | > 100 | > 100 µM | > 100 | > 100 µM | > 100 µM | > 100 µM | – | > 100 | > 100
Cc1ccc(NCCN(C)C)c2c(=O)c3cc(O)ccc3sc12 | 29.6 µM | 10.4 | 9.88 | 5.76 µM | 1.59 | 18.4 µM | 3.87 µM | 6.84 µM | – | 15.6 | 11.6
COc1cc2c(cc1OC)C(=O)/C(=C/c1ccc(N(C)C)cc1)CC2 | > 10 µM | > 10 | > 10 | > 10 µM | > 10 | > 10 µM | > 10 µM | > 10 µM | – | > 10 | > 10
CC(C)[C@@H]1NC(=O)[C@@H]2N=C(O[C@H]2C)[C@H](C(C)C)NC(=O)C2N=C1O[C@H]2C | > 100 µM | > 100 | > 100 | > 100 µM | > 100 | > 100 µM | > 100 µM | > 100 µM | – | > 100 | > 100
CC1CCCN1CCCOC(=O)c1ccc(OC2C=CCCC2)cc1 (stereo not given) | > 100 µM | 31.6 | 35.2 | 46.4 µM | 49.6 | 37.9 µM | 71.8 µM | > 100 µM | – | > 100 | 68.2
CCCCCCCCCCCCC1N=C(N)NC2(CCCO2)C1C(=O)OC (stereo not given) | 22.1 µM | 16.6 | 23.7 | 7.65 µM | 9.2 | 24.7 µM | 8.89 µM | 23.3 µM | – | 33.2 | 5.53
COc1cccc(N=NN2CCCC2)c1 | > 100 µM | > 100 | > 100 | > 100 µM | > 100 | > 100 µM | > 100 µM | > 100 µM | – | > 100 | > 100
Cc1cc2occ(S(=O)(=O)NC(=O)Nc3ccc(Cl)cc3)c(=O)c2c(=O)o1 | > 100 µM | > 100 | > 100 | > 100 µM | > 100 | > 100 µM | > 100 µM | > 100 µM | – | > 100 | > 100
O=C1C=C/C(=C/[C@H]2SSC=C[C@]23C=CC(=O)C3)C1 | 28.4 µM | > 54.7 | 38.9 | > 51.5 µM | > 100 | > 100 µM | 93.2 µM | > 81 µM | – | 47.3 | > 100
O=C1C2CC[C@@H]3C(=O)C(Cl)(Cl)[C@@H]3CCC2C1(Cl)Cl (stereo not given in full) | > 100 µM | > 100 | > 100 | > 100 µM | > 91.1 | > 100 µM | > 100 µM | > 100 µM | – | > 100 | > 100
CC(NNC(=O)c1ccncc1)c1ccc(Cl)cc1Cl (stereo not given) | > 100 µM | > 100 | > 100 | > 100 µM | > 100 | > 100 µM | > 100 µM | > 100 µM | – | > 100 | > 100
COc1cc(/C=C2/Oc3c(OC)cccc3C2=O)ccc1O | > 100 µM | > 100 | > 100 | > 100 µM | > 100 | > 100 µM | > 100 µM | > 100 µM | – | > 100 | > 100

SMILES | TGI (OVCAR-5 ovarian) | TGI (M14 melanoma) [µM] | TGI (SK-MEL-5 melanoma) [µM] | TGI (SW-620 colon) | TGI (MCF7 breast) [µM] | TGI (SF-295 CNS) | TGI (HS 578T breast) | TGI (OVCAR-8 ovarian) | GI50 (RPMI-8226 leukemia) [µM] | TGI (DU-145 prostate) [µM] | TGI (RPMI-8226 leukemia) [µM]
N#CC(NNC(=O)c1ccccc1O)c1c(O)ccc2ccccc12 (stereo not given) | 21.1 µM | 30 | 10.4 | > 60.9 µM | 53.6 | 50.5 µM | > 86.2 µM | 25.9 µM | – | 18.4 | 43
Clc1cc2ncn(C3CCCCO3)c2cc1Cl (stereo not given) | > 100 µM | > 100 | > 100 | > 100 µM | > 100 | > 100 µM | 85.4 µM | > 100 µM | – | > 100 | > 100
CN(C)C(=O)Oc1ccc(C(=S)Nc2ccccc2)cc1 | > 100 µM | > 100 | 55.6 | > 100 µM | > 100 | > 100 µM | > 100 µM | 64 µM | – | > 100 | > 100
Cc1cc(C)nc(NS(=O)(=O)c2ccc(Nc3c4ccccc4nc4ccc(C(=O)Nc5ccc(S(=O)(=O)N=C(N)N)cc5)cc34)cc2)n1 | > 100 µM | > 100 | > 100 | > 100 µM | 43.9 | > 100 µM | > 100 µM | > 100 µM | – | > 100 | > 100
COc1ccc2c(c1)CC[C@@H]1C2CC[C@]2(C)C(=C=CP(=O)(O)O)CCC12 (stereo not given in full) | > 100 µM | > 100 | > 100 | > 100 µM | > 100 | > 100 µM | > 100 µM | > 100 µM | – | > 100 | > 100
CSc1nc(C)c2c(n1)N(c1ccc(Cl)cc1)CC2 | > 100 µM | > 100 | > 100 | > 100 µM | > 100 | > 100 µM | > 100 µM | > 100 µM | – | > 100 | > 100
Cc1ncc(CSC(=N)N)n1Cc1ccccc1 | > 100 µM | > 100 | > 100 | > 100 µM | > 100 | > 100 µM | > 100 µM | > 100 µM | – | > 100 | 83.2
C/C(=N\NC(=S)N1CCOCC1)c1nc2ncccc2[nH]1 | > 100 µM | > 100 | > 100 | > 100 µM | 80.4 | 69.6 µM | > 100 µM | 80.2 µM | – | > 100 | > 100
O=C(O)CCC1NC(/C(=C/c2ccccc2O)NC(=O)c2ccccc2)OC1=O (stereo not given) | > 100 µM | > 100 | > 100 | > 100 µM | > 100 | > 100 µM | > 100 µM | > 100 µM | – | > 100 | > 100
S=c1[nH]n2c(COc3cc(Cl)c(OCc4nnc5sc(=S)[nH]n45)cc3Cl)nnc2s1 | > 100 µM | > 100 | > 100 | > 100 µM | 40.8 | > 100 µM | > 100 µM | > 100 µM | – | > 100 | > 100
O=C1c2ccccc2C(=O)c2sc(Nc3cc(Cl)ccc3Cl)nc21 | 45.6 µM | > 42.6 | 2.98 | > 22.2 µM | 3.7 | 17.4 µM | > 72.3 µM | 14.2 µM | – | 24.6 | 22.6
c1ccc(-c2c(-c3[nH]c4ccccc4c3-c3ccccc3)[nH]c3ccccc23)cc1 | 23.4 µM | 14.9 | 14.8 | 13.1 µM | 11.9 | 14.9 µM | 51.6 µM | 15.6 µM | – | 10.8 | 11.9
CSc1nc[nH]c1C(N)=S | > 100 µM | > 100 | > 100 | > 100 µM | > 100 | > 100 µM | > 100 µM | > 100 µM | – | > 100 | > 100
CC(C)(CN1CCCCC1)C(=O)CC(SCCS(=O)(=O)O)c1ccc(Cl)cc1 (stereo not given) | 11.4 µM | 9.19 | 20.8 | 9.07 µM | 11.8 | 15.8 µM | 7.5 µM | 11.1 µM | – | 21.7 | 6.65
CCc1cc2c(c3c1CCCC3=O)CC1(C2)Cc2cc(CC)c3c(c2C1)C(=O)CCC3 | > 100 µM | > 100 | > 100 | > 100 µM | > 100 | > 100 µM | > 100 µM | > 100 µM | – | > 100 | > 100
COc1ccc(CC[N+]2(C)COc3cc4oc(=O)cc(C)c4cc3C2)cc1OC (stereo not given) | > 100 µM | > 100 | > 100 | > 100 µM | > 100 | > 100 µM | > 100 µM | > 100 µM | – | > 100 | > 100
C=CCOC(=O)N1c2ccc(O)cc2[C@@]23O[C@@]24[C@@H]1C#C/C=C\C#C[C@]3(O)C(=O)C[C@@H]4C | > 100 µM | > 100 | > 100 | > 100 µM | > 100 | > 100 µM | > 100 µM | > 100 µM | – | > 100 | > 100
CCOC(=O)C1C(c2ccc(OC)cc2)c2c([nH]n(-c3ccccc3)c2=O)CC1(C)O (stereo not given) | > 100 µM | > 100 | > 100 | > 100 µM | > 100 | > 100 µM | > 100 µM | > 100 µM | – | > 100 | > 100
